In experiment [1] the test system is HIV-1 pre-integration complexes / karyopherin α. The experiment can be described thus: Binding of HIV-1 pre-integration complexes to GST-karyopherin α. It is filed as biochemical. The procedure: Cytoplasmic lysates of H9 cells infected with HIV-1RF (upper panel) or HIV-like pseudovirions (bottom panel) were treated for 2 hours with various concentrations of CNI-H0294, and were then mixed with GST-karyopherin α immobilized on glutathione Sepharose beads. HIV-1 DNA or RNA that co-precipitated with karyopherin α was quantified as in A and B.
Cytoplasmic lysates prepared from H9 cells infected with HIV-1RF were treated with 10 μM CNI-H3094 (lane 1) or with 1 μM CNI-H0294 and 10 μM (lane 5), 5 μM (lane 4), 1 μM (lane 3), or no CNI-H3094 (lane 2). The amount of pre-integration complexes available for interaction with karyopherin α was quantified as in FIG. 10.
H9 cells were infected with equal amounts of wild-type HIV-1NLHX or with mutant HIV-1NLHX that lack Vpr (Vpr^−) or carry a mutation that inactivates the MA NLS (MA NLS^−). Infected cells were washed and incubated for 4 h. An aliquot of each sample was used to quantify the total HIV-1 DNA (FIG. 14A) and the rest was used to prepare cytoplasmic extracts. Extracts were incubated with 1 μM CNI-H0294 (FIG. 14B, lanes 2, 4, 6, 8) or were left untreated (lanes 1, 3, 5, 7). The amount of pre-integration complexes available for binding to karyopherin α was determined as in FIG. 10.
H9 cells were infected with HIV-1 or HIV-like pseudovirions (Haffar, et al., 1990, J. Virol., 64:2653-2659) at a multiplicity adjusted according to p24 content (50 ng p24 per 10^6 cells) The MA NLS^− virus contains substitutions of isoleucine residues for lysines in positions 26 and 27 of MA in an NLHX backbone (Westervelt., et al., 1992, J. Virol. 66:2577-2582), thus inactivating the NLS. The Vpr^− virus has the initiating ATG of the vpr gene changed to GTG, thus abolishing expression of this gene. The ΔMA NLS pseudovirions have leucine substituting for lysine in position 28 of MA. This mutation abrogates nuclear translocation of HIV-1 gag RNA in growth-arrested H9 cells infected with pseudovirions. After a 1 hour absorption, excess viruses or pseudovirions were washed away, and cells were incubated for an additional 2-3 hour period at 37° C. prior to analysis.
Cytoplasmic extracts were prepared by lysing cells in cold extraction buffer (10 mM KCl, 10 mM Tris-HCl [pH 7.6], 0.5 mM MgCl2, 1 μg/ml each of leupeptin and aprotinin, and 1 MM phenylmethylsulfonyl fluoride [PMSF]) by 20-30 strokes of a Dounce homogenizer under the control of phase-contrast microscopy. After removal of nuclei, cytoplasmic extract was cleared by centrifugation at 15,000 g for 10 min.
Cytoplasmic extracts prepared from HIV-1-or pseudovirion-infected H9 cells were adjusted to 0.14 M NaCl, 0.1% Tween 20 and precleared with glutathione-Sepharose beads for 30 min. at room temperature. Karyopherin α was expressed as a fusion protein with glutathione S-transferase (GST) which can bind glutathione beads in solution. GST-karyopherin α immobilized on Sepharose beads was then added (about 50 μg of immobilized karyopherin α per extract from 108 infected cells) and the mixture was incubated at room temperature for another 30 min. Beads were then pelleted by centrifugation and washed 3 times with PBS supplemented with 0.1% Tween 20, 1 μg/ml each of leupeptin and aprotinin, and 1 mM PMSF. HIV-1 DNA was isolated from the beads by SDS-proteinase K treatment with subsequent phenol-chloroform extraction, while pseudovirion gag RNA was isolated by RNazol (Biotecx Laboratories Inc.).

The subject of a further experiment is HIV-1ADA. The experiment can be described thus: Anti-HIV activity in primary human monocytes, day 9 (Table IX, FIG. 12C). Type of experiment: cell-based. The procedure:
Monocytes infected with HIV-1ADA were cultured in the presence of CNI-H0294 and CNI-H3094 in various concentrations. Nine days after infection, RT activity in culture supernatants was quantified. The results are presented as percent of total RT activity in untreated cultures (control). Three independent samples were assayed for each drug concentration, and the standard deviation was less than 15%.
[…] A 50% inhibitory concentration (IC50) was determined at day 9 after infection.

Experiment [2] addresses T1, recombinant RT (p51/p66 heterodimer) (Human immunodeficiency virus type 1 group M subtype B, UniProt P04585).
T1 construct: recombinant MA or RT (a p51/p66 heterodimer)
Briefly: Binding of [14C]-CNI-H0294 to recombinant RT in solution (immunoprecipitation). To be noted: 0.2 μM RT, 3.3 μM labeled CNI-H0294, increasing unlabeled compound. Details: species or system HIV-1. As to the method: Twenty nmol of [^14C]-CNI-HO294 were mixed with 0.28 nmol of recombinant MA or RT (a p51/p66 heterodimer) in 40 μl of binding buffer. Samples were incubated for 2 h at 37° C. in the presence or absence of 200 nmol of unlabeled CNI-H0294. MA and RT proteins were immunoprecipitated using protein G agarose and sheep polyclonal anti-MA (αMA) or rabbit anti-RT (αRT) sera, respectively. Pre-immune sera (PI) was used as control. Bound material was eluted from protein G using 0.1 M glycine buffer [pH 2.8] and the radioactivity in the eluate was quantified in a scintillation counter.
Recombinant RT (0.2 μM) was incubated with 3.3 μM of [^14C ]-labeled CNI-H0294 and increasing concentrations of unlabeled (cold) CNI-3094. The amount of [^14C]-CNI-H0294 that bound to RT was measured as in FIG. 11.
0.28 nanomoles of recombinant MA or RT [p66/p51 ] dimer were mixed with 20 nmol of [^14C] CNI-HO294 (specific activity 5×10^4 cpm/nmol) and incubated 2 hr at room temperature in 40 μl of binding buffer (PBS supplemented with 1% BSA, 0.1% Tween 20, 1 μg/ml leupeptin, 1 μg/ml aprotinin, 1 mM PMSF). Sheep anti-MA or rabbit anti-RT sera (both obtained from NIH AIDS Research and Reference Reagent Program) or pre-immune control sera were then added (at 1:100 dilution) and incubation continued for another 1 hr at room temperature. Immune complexes were precipitated with protein G-agarose, washed, and then eluted with 0.1 M glycine, pH 2.8. Radioactivity of the eluate was measured in a scintillation counter.

pIC50: −log10 of the molar value. Some results are limits rather than exact numbers.

On to `COC(=O)c1cc(Nc2cc(C)nc(N)n2)cc(C(=O)OC)c1` [CNI-H3094], for which, in experiment [1] (10 μM alone (FIG. 12B, lane 1)), the “inhibition of binding of HIV-1 pre-integration complexes to karyopherin α” value is recorded as “did not inhibit”. The “effect on CNI-H0294 inhibition of pre-integration complex binding to karyopherin α” value is “reduced significantly the inhibitory effect of CNI-H0294” in experiment [1] (5-fold excess over 1 μM CNI-H0294) and “completely eliminated the inhibitory effect” in experiment [1] (10-fold excess over 1 μM CNI-H0294). The pIC50 in the experiment on HIV-1ADA (Human immunodeficiency virus 1, Monocyte, 216 h, day 9 after infection, >10 μM = 50% inhibition not achieved at maximal concentration, read-out: IC50) was < 5.00. Also, the “effect on anti-HIV activity of CNI-H0294 in monocyte cultures” value in the experiment with HIV-1ADA (RT activity nine days after infection (FIG. 12C)) is listed as “eliminated the inhibitory effect of CNI-H0294 on HIV-1 replication”. In addition, the “competition with [14C]-labeled CNI-H0294 for binding to RT” value in experiment [2] is “inhibits binding of [^14C]-labeled CNI-H0294 to RT in a dose-dependent manner”.

(Values after patent publication US6649797B2, “Compounds and methods of use to treat infectious diseases” (The Picower Institute for Medical Research, priority 1996, dated 2003).)
